Where “and” joins values, the source holds several entries; their conditions need not be identical. Equal values may be shown once.
Legend:
rSsoPK4(284–635) [1] = assay: Protein kinase activity assay (filter paper method, [γ-32P]ATP, 65 °C) of rSsoPK4(284–635); type: biochemical, Sulfolobus solfataricus; conditions: for Inhibitor: effector at 100 µM, MBP as phosphoacceptor substrate; for perturbed the activity of rSsoPK4: compound at 100 µM; for Km / Vmax toward protein substrate: no CoAS-SCoA, label = protein substrate, estimated
Method: (§1) Protein kinase activity was routinely assayed by the filter paper method of Corbin and Reimann as modified by Lower and Kennelly. The final volume of the assays was typically 50 μL. The quantity of rSsoPK4 assayed ranged from 0.1 to 5.0 µg. Both MgCl2 and MnCl2 were included at a final concentration of 5 mM each. The final concentration of [γ-^32P]ATP was 100 μM. The specific activity of the [γ-^32P]ATP generally ranged from 2 to 5 × 10^15 cpm/mol. Phosphoacceptor proteins were generally present at a concentration of 0.5–1.0 µg/µL. The assay mixture was typically incubated for a period of 30 min to one hour at 65 °C in 50 mM MOPS pH 7.0. On occasion, the proteins within the assay mixture were resolved by SDS-PAGE in order to identify the specific polypeptides that were phosphorylated. Radiolabeled species were visualized using an Instant Imager from Packard (Downers Grove, IL, USA).

rSsoPK4(284–635) [2] = target: T1, rSsoPK4(284–635) (Saccharolobus solfataricus, UniProt Q97U41); assay: Filter paper [γ-32P]ATP kinase assay with MBP as phosphoacceptor, ATP routinely 100 µM, 5 mM MgCl2 and 5 mM MnCl2, 50 mM MOPS pH 7.0, 65 °C, in the presence of nucleotide effectors.; type: biochemical
T1 construct: gene SSO3182; residues 284–635 (catalytic and part of central helical repeat domain), N-terminal S-tag, C-terminal 33-residue fusion domain with polyhistidine motif, pET-29b, expressed in E. coli
T1 sequence (Q97U41 284-635): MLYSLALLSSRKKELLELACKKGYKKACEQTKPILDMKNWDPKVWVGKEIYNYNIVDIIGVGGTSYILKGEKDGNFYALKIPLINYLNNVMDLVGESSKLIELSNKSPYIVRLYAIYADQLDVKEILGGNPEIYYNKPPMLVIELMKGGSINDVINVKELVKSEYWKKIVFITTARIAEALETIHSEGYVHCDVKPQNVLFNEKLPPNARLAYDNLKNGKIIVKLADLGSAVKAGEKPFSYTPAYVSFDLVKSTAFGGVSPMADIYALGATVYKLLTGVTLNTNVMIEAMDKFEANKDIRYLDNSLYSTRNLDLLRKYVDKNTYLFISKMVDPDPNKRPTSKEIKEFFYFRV
Method: as §1

[3] = tested on: rSsoPK4(284–635) T592D/T606D/S611D; assay: Protein kinase activity assay of rSsoPK4(284–635) T592D/T606D/S611D; type: biochemical, Sulfolobus solfataricus; conditions: no CoAS-SCoA; label = protein substrate
Method: Figure 9 CoAS-SCoA activates rSsoPK4(284–635), but not rSsoPK4(284–635) T592D/T606D/S611D, in a concentration-dependent manner. The activity of rSsoPK4(284–635) (OPEN […]) and rSsoPK4(284–635) T592D/T606D/S611D (OPEN CIRCLES) were assayed, in duplicate, in the presence of the indicated concentrations of CoAS-SCoA using MBP as substrate. Shown is a plot of the activity relative to that measured in the absence of CoAS-SCoA, which was normalized as 1.0, plus or minus mean average deviation.

In the case of `NC(=O)c1ccc[n+]([C@@H]2O[C@H](COP(=O)([O-])OP(=O)(O)OC[C@H]3O[C@@H](n4cnc5c(N)ncnc54)[C@H](OP(=O)(O)O)[C@@H]3O)[C@@H](O)[C@H]2O)c1` [NADP^+], the Inhibitor (rSsoPK4(284–635) [1]) is reported as “N (Where a change of ±20% or less in enzyme activity was observed, the compound was designated as non-inhibitory (N))”.

`Nc1nc2c(ncn2[C@@H]2O[C@H](COP(=O)(O)OP(=O)(O)OP(=O)(O)O)[C@@H](O)[C@H]2O)c(=O)[nH]1` [GTP] was tested, and the Inhibitor (rSsoPK4(284–635) [1]) was “N (Where a change of ±20% or less in enzyme activity was observed, the compound was designated as non-inhibitory (N))”.

With `Nc1ncnc2c1ncn2[C@@H]1O[C@H](COP(=O)(O)OP(=O)(O)O)[C@@H](O)[C@H]1O` [ADP] the “perturbed the activity of rSsoPK4” value (rSsoPK4(284–635) [1]) was “perturbed the activity” and the Inhibitor (rSsoPK4(284–635) [1]) was “Y (designated as inhibitors (Y) if they were observed to stimulate or reduce, respectively, catalytic activity by greater than 20% relative to controls lacking added effectors)”.

With `CC(C)(COP(=O)(O)OP(=O)(O)OC[C@H]1O[C@@H](n2cnc3c(N)ncnc32)[C@H](O)[C@@H]1OP(=O)(O)O)[C@@H](O)C(=O)NCCC(=O)NCCS` [CoASH, reduced CoA] the Inhibitor (rSsoPK4(284–635) [1]) was “N (Where a change of ±20% or less in enzyme activity was observed, the compound was designated as non-inhibitory (N))”.

`Nc1ncnc2c1ncn2[C@@H]1O[C@H](CO)[C@H]2OP(=O)(O)O[C@H]21` [2ʹ,3ʹ-cAMP, 2ʹ,3ʹ-cyclic AMP] was tested, and the IC50 (rSsoPK4(284–635) [2]) was 1550 µM.

In the case of `Nc1ncnc2c1ncn2[C@H]1C[C@H](O)[C@@H](COP(=O)(O)O)O1` [5ʹ-dAMP], the Inhibitor (rSsoPK4(284–635) [1]) is reported as “N (Where a change of ±20% or less in enzyme activity was observed, the compound was designated as non-inhibitory (N))”.

`Nc1ncnc2c1ncn2[C@@H]1O[C@H](COP(=O)(O)O)[C@@H](O)[C@H]1O` [5'AMP, 5ʹ-AMP] was tested, and the “perturbed the activity of rSsoPK4” value (rSsoPK4(284–635) [1]) was “perturbed the activity” and the Inhibitor (rSsoPK4(284–635) [1]) was “Y (designated as inhibitors (Y) if they were observed to stimulate or reduce, respectively, catalytic activity by greater than 20% relative to controls lacking added effectors)”.

For `Nc1ncnc2c1ncn2[C@@H]1O[C@H](COP(=O)(O)OS(=O)(=O)O)[C@@H](O)[C@H]1O` [Adenosine phosphosulfate], the “perturbed the activity of rSsoPK4” value (rSsoPK4(284–635) [1]) was “perturbed the activity” and the Inhibitor (rSsoPK4(284–635) [1]) was “Y (designated as inhibitors (Y) if they were observed to stimulate or reduce, respectively, catalytic activity by greater than 20% relative to controls lacking added effectors)”.

With `Nc1ccn([C@@H]2O[C@H](COP(=O)(O)O)[C@@H](O)[C@H]2O)c(=O)n1` [5ʹ-CMP] the Inhibitor (rSsoPK4(284–635) [1]) was “N (Where a change of ±20% or less in enzyme activity was observed, the compound was designated as non-inhibitory (N))”.

With `Cc1ncc(C[n+]2csc(CCOP(=O)(O)OP(=O)(O)O)c2C)c(N)n1` [Thiamine-PPi] the Inhibitor (rSsoPK4(284–635) [1]) was “N (Where a change of ±20% or less in enzyme activity was observed, the compound was designated as non-inhibitory (N))”.

For `NC(=O)c1ccc[n+]([C@@H]2O[C@H](COP(=O)([O-])OP(=O)(O)OC[C@H]3O[C@@H](n4cnc5c(N)ncnc54)[C@H](O)[C@@H]3O)[C@@H](O)[C@H]2O)c1` [NAD^+], the Inhibitor (rSsoPK4(284–635) [1]) was “N (Where a change of ±20% or less in enzyme activity was observed, the compound was designated as non-inhibitory (N))”.

In the case of `Nc1ncnc2c1ncn2[C@@H]1O[C@H](CSCC[C@H](N)C(=O)O)[C@@H](O)[C@H]1O` [S-Adenosyl-homocysteine], the Inhibitor (rSsoPK4(284–635) [1]) is reported as “N (Where a change of ±20% or less in enzyme activity was observed, the compound was designated as non-inhibitory (N))”.

In the case of `Nc1nc2c(ncn2[C@@H]2O[C@H](COP(=O)(O)O)[C@@H](O)[C@H]2O)c(=O)[nH]1` [5ʹ-GMP], the Inhibitor (rSsoPK4(284–635) [1]) is reported as “N (Where a change of ±20% or less in enzyme activity was observed, the compound was designated as non-inhibitory (N))”.

With `Nc1ncnc2c1ncn2[C@@H]1O[C@H](COP(=O)(O)OS(=O)(=O)O)[C@@H](OP(=O)(O)O)[C@H]1O` [Phosphoadenosine phosphosulfate] the Inhibitor (rSsoPK4(284–635) [1]) was “N (Where a change of ±20% or less in enzyme activity was observed, the compound was designated as non-inhibitory (N))”.

With `O=c1ccn([C@@H]2O[C@H](COP(=O)(O)O)[C@@H](O)[C@H]2O)c(=O)[nH]1` [5ʹ-UMP] the Inhibitor (rSsoPK4(284–635) [1]) was “N (Where a change of ±20% or less in enzyme activity was observed, the compound was designated as non-inhibitory (N))”.

With `Nc1ncnc2c1ncn2[C@@H]1O[C@H](CO)[C@@H](OP(=O)(O)O)[C@H]1O` [3ʹ-AMP] the “perturbed the activity of rSsoPK4” value (rSsoPK4(284–635) [1]) was “perturbed the activity” and the Inhibitor (rSsoPK4(284–635) [1]) was “Y (designated as inhibitors (Y) if they were observed to stimulate or reduce, respectively, catalytic activity by greater than 20% relative to controls lacking added effectors)”.

Molecule `Nc1ncnc2c1ncn2[C@@H]1O[C@H](COP(=O)(O)OP(=O)(O)O)[C@@H](O)[C@H]1O` [ADP, adenosine 5'-diphosphate] has an IC50 (rSsoPK4(284–635) [2]) of 190 µM.

`NC(=O)C1=CN([C@@H]2O[C@H](COP(=O)(O)OP(=O)(O)OC[C@H]3O[C@@H](n4cnc5c(N)ncnc54)[C@H](O)[C@@H]3O)[C@@H](O)[C@H]2O)C=CC1` [NADH] was tested, and the Inhibitor (rSsoPK4(284–635) [1]) was “N (Where a change of ±20% or less in enzyme activity was observed, the compound was designated as non-inhibitory (N))”.

`Nc1ncnc2c1ncn2[C@@H]1O[C@H](COP(=O)(O)O)[C@@H](O)[C@H]1O` [5'AMP, adenosine 5'-monophosphate] gave an IC50 (rSsoPK4(284–635) [2]) of 920 µM.

For `C[S+](CC[C@H](N)C(=O)[O-])C[C@H]1O[C@@H](n2cnc3c(N)ncnc32)[C@H](O)[C@@H]1O` (some centres unmarked) [S-Adenosyl-Methionine], the Inhibitor (rSsoPK4(284–635) [1]) was “N (Where a change of ±20% or less in enzyme activity was observed, the compound was designated as non-inhibitory (N))”.

With Oxidized glutathione the “effect on protein kinase activity toward MBP” value (rSsoPK4(284–635) [1]; MBP substrate, compounds at 1 mM (Figure 8)) was “no effect”.

For `NC(=O)C1=CN([C@@H]2O[C@H](COP(=O)(O)OP(=O)(O)OC[C@H]3O[C@@H](n4cnc5c(N)ncnc54)[C@H](OP(=O)(O)O)[C@@H]3O)[C@@H](O)[C@H]2O)C=CC1` [NADPH], the Inhibitor (rSsoPK4(284–635) [1]) was “N (Where a change of ±20% or less in enzyme activity was observed, the compound was designated as non-inhibitory (N))”.

For `Nc1ncnc2c1ncn2[C@@H]1O[C@H](CO)[C@H]2OP(=O)(O)O[C@H]21` [2ʹ,3ʹ-cAMP], the “perturbed the activity of rSsoPK4” value (rSsoPK4(284–635) [1]) was “perturbed the activity” and the Inhibitor (rSsoPK4(284–635) [1]) was “Y (designated as inhibitors (Y) if they were observed to stimulate or reduce, respectively, catalytic activity by greater than 20% relative to controls lacking added effectors)”.

In the case of `Cc1cc2nc3c(=O)[nH]c(=O)nc-3n(C[C@H](O)[C@H](O)[C@H](O)COP(=O)(O)OP(=O)(O)OC[C@H]3O[C@@H](n4cnc5c(N)ncnc54)[C@H](O)[C@@H]3O)c2cc1C` [FAD^+], the Inhibitor (rSsoPK4(284–635) [1]) is reported as “N (Where a change of ±20% or less in enzyme activity was observed, the compound was designated as non-inhibitory (N))”.

`CC(=O)SCCNC(=O)CCNC(=O)[C@H](O)C(C)(C)COP(=O)(O)OP(=O)(O)OC[C@H]1O[C@@H](n2cnc3c(N)ncnc32)[C@H](O)[C@@H]1OP(=O)(O)O` [Acetyl-CoA] was tested, and the Inhibitor (rSsoPK4(284–635) [1]) was “N (Where a change of ±20% or less in enzyme activity was observed, the compound was designated as non-inhibitory (N))”.

B1: aIF2α: recombinant protein product of ORF sso1050, archaeal homologue of eIF2α from S. solfataricus (protein, UniProt Q97Z79 1-266, looked up)
Translation initiation factor …: MIYSRSKLPSEGEILIATVKQVFDYGSYVSLDEYGGLQAFLPWSEVSSKWVKNIRDVLKENRKVIVKVIRVDRRKGTVDVSLKKVTDDERRKKNLQWKKIQRLDKILELVSQKLKLSEKDAWEQVAWKLEAKYGDPITAIEKAVKEGEKILIDAGVPEIWVKPLLEEASKHAEERKVKMSGLITVRTNEPLGVEKIKEVISKALENIEQDYESLLNIKIYTIGAPRYRVDVVGTNPKEASEALNQIISNLIKIGKEENVDISVVKK
B1 was tested, and the Km (rSsoPK4(284–635) [1]) was ~48 µM and 48 µM, the “Vmax toward protein substrate” value (rSsoPK4(284–635) [1]) was 4.2 nmol/min/mg and the Km [3] was 4 µM. The “Vmax toward protein substrate” value [3] was 1.9 nmol/min/mg.

B2: MBP: myelin basic protein, exogenous phosphoacceptor substrate (protein, UniProt P02687 1-169, looked up)
Myelin basic protein: AAQKRPSQRSKYLASASTMDHARHGFLPRHRDTGILDSLGRFFGSDRGAPKRGSGKDGHHAARTTHYGSLPQKAQGHRPQDENPVVHFFKNIVTPRTPPPSQGKGRGLSLSRFSWGAEGQKPGFGYGGRASDYKSAHKGLKGHDAQGTLSKIFKLGGRDSRSGSPMARR
With B2 the Km (rSsoPK4(284–635) [1]) was 145 µM, the “Vmax toward protein substrate” value (rSsoPK4(284–635) [1]) was 3.7 nmol/min/mg and the Km [3] was 17 µM. The “Vmax toward protein substrate” value [3] was 4.2 nmol/min/mg.

Reference: paper PMC5217372, “Activation of SsoPK4, an Archaeal eIF2α Kinase Homolog, by Oxidized CoA” (Proteomes, 2015)
